In brackets after ≈: the same amount, converted by molar mass.
How the values were obtained:
Assay type in all cases: physicochemical
Solubility in toluene = test: Solubility in toluene
Experimental: As used herein, a compound can be considered soluble in a solvent when at least 0.1 mg of the compound can be dissolved in 1 mL of the solvent. Examples of common organic solvents include petroleum ethers; acetonitrile; aromatic hydrocarbons such as benzene, toluene, xylene, and mesitylene; ketones such as acetone, and methyl ethyl ketone; ethers such as tetrahydrofuran, dioxane, bis(2-methoxyethyl)ether, diethyl ether, di-isopropyl ether, and t-butyl methyl ether; alcohols such as methanol, ethanol, butanol, and isopropyl alcohol; aliphatic hydrocarbons such as hexanes; esters such as methyl acetate, ethyl acetate, methyl formate, ethyl formate, isopropyl acetate, and butyl acetate; amides such as dimethylformamide and dimethylacetamide; sulfoxides such as dimethylsulfoxide; halogenated aliphatic and aromatic hydrocarbons such as dichloromethane, chloroform, ethylene chloride, chlorobenzene, dichlorobenzene, and trichlorobenzene; and cyclic solvents such as cyclopentanone, cyclohexanone, and 2-methypyrrolidone. In various embodiments, the present compounds can have good solubility in solvents that are aromatic hydrocarbons such as benzene, toluene, xylene, and mesitylene.
Table 2 below compares the solubilities of several compounds according to the present teachings with their unsubstituted counterparts in toluene.

[1] = Electrochemistry (redox potentials)
Experimental: Electrochemical measurements were performed using a CH Instruments Model 622 electrochemical workstation. Measurements for compounds 4, 6, 8, and 10 were performed in dichloromethane containing 0.1 M tetrabutylammonium hexafluorophosphate (TBAPF6) electrolyte. Measurements for 2 were performed in benzonitrile with the same electrolyte. A 1.0 mm diameter platinum disk electrode, platinum wire electrode, and […] reference electrode were employed. The ferrocene/ferrocenium redox couple (Fc/Fc^+, 0.46 V vs. SCE) (see Connelly et al., Chem. Rev., 96: 877-910 (1996)) was used as an internal standard. TBAPF6 was recrystallized twice from ethyl acetate prior to use.
Alkylation (e.g., substitution of the phenethyl groups) ortho to the imide nitrogen atoms appears to render the present compounds somewhat more difficult to reduce, but easier to oxidize (Table 3). The reduction potentials of the disubstituted compounds (2, 4, and 6) are approximately 130 mV more negative than those of their parent compounds. Correspondingly, the oxidation potential of the disubstituted 6 is 40 mV less positive than that of […]. Tetrasubstituted 8 and 10 have reduction potentials that are more negative by ˜200 mV than their unsubstituted analogs. These shifts in redox potentials reasonably arise from the electron-donating nature of the alkylating (e.g., phenethyl) groups. The oxidation and reduction potentials of all alkylated molecules shift in the same direction by nearly the same amount, such that the corresponding HOMO-LUMO energy gap remains the same, as is reflected in their electronic absorption and emission spectra described below.

[2] = Steady-state electronic absorption and fluorescence spectroscopy
Experimental: Steady-state electronic absorption spectra were recorded on a Shimadzu 1601 UV/Vis spectrometer with a 2 mm quartz cuvette. Fluorescence measurements were performed using a PTI Quanta-Master 1 single photon counting spectrofluorimeter in a right angle configuration with a 1 cm quartz cuvette.
The intensity of the S0→>S1 transition increases with the size of the aromatic core, while the energy decreases. The fluorescence spectrum of each chromophore is shown in FIG. 4b and summarized in Table 4 along with that of compounds 1, 3, 5, 7, and 9. A similar trend with the emission maxima moving to longer wavelengths as the size of the aromatic core increases was observed. The electronic absorption and fluorescence properties of all the alkylated chromophores are very similar to those of the parent compounds. No observable trend is apparent for the slight shifts in λmax; however, with the exception of 2, all alkylated compounds have slightly lower extinction coefficients than their parent compounds. The fluorescence emission maxima of the alkylated compounds (Table 4) are similar to those of the parent compounds as reported in the literature. See Hydlovic et al., Phtochem. Photobiol. A., 112: 197-203 (1998); Licchelli et al., Chem. Eur. J., 8: 5161-5169 (2002); Weil et al., Chem. Eur. J., 8: 4742-4750 (2002); and Sadrai et al., J. Phys. Chem., 96: 7988-7996 (1992).

[3] = Femtosecond transient absorption (excited-state decay); details: transient absorption decay time constant, dry toluene
Text: Femtosecond transient absorption measurements were made using a Ti:sapphire laser system as detailed in previously reported work. See Kelley et al., J. Am. Chem. Soc., 129: 3173-3181 (2007). The wavelengths used to excite the samples were 390 nm (1-4), 416 nm (5-8), and 650 nm (9 and 10). The instrument response function for the pump-probe experiments is 160 fs. The transient spectra were obtained using 10 s of averaging at a given delay time. Glass cuvettes with a 2 mm pathlength were used and the samples were dissolved in dry toluene and irradiated with 1.0 μJ pulses at the excitation wavelength. Analysis of the kinetic data was performed at multiple wavelengths using a Levenberg-Marquardt nonlinear least-squares fit to a general sum-of-exponentials function with an added Gaussian to account for the finite instrument response.
The transient absorption spectra of naphthalene monoimide 2, specifically, the S1→>Sn absorption is characterized by a single broad band at 525 nm, which decays monoexponentially with a time constant τD=34 ps. This is similar to the time constant of other NMI compounds and is attributed to rapid intersystem crossing leading to the triplet state of 2. […] The residual 530 nm absorption band decays further with a 175 ps time constant. […]

[4] = shift versus unsubstituted parent

CCCCC(CC)CN1C(=O)c2c(CCc3ccccc3)cc3c4cccc5cccc(c6cc(CCc7ccccc7)c(c2c36)C1=O)c54 (stereo not shown) [Compound 6, N-(2′-ethylhexyl)-2,5-bis(phenethyl)perylene-3,4-dicarboximide]
Solubility relative to unsubstituted counterpart (Solubility in toluene): three times more soluble | solubility (Solubility in toluene; organic solvent or mixture): 6000 µg/mL (≈ 9.35 mM) | E^−1/2 ([1]; first reduction potential, dichloromethane, 0.1 M TBAPF6, Fc/Fc+ (0.46 V vs. SCE) internal standard): −1.13^ | E^+1/2 ([1]; oxidation potential, dichloromethane, 0.1 M TBAPF6, Fc/Fc+ (0.46 V vs. SCE) internal standard): 1.37 V | E^2−1/2 ([1]; second reduction potential, dichloromethane, 0.1 M TBAPF6): −1.43^ | Oxidation potential less positive than that of parent [1, 4]: 40 mV | Reduction potential more negative than that of parent compound [1, 4]: approximately 130 mV | λmax ([2]; UV-vis absorption in toluene): 501 nm | E(S1) ([2]; determined from the average energy of the absorption and emission maxima): 2.43 eV | ε ([2]; extinction coefficient at λmax, toluene): 27000 M⁻¹ cm⁻¹ | λem ([2]; fluorescence emission maximum, toluene): 521^ nm | φF ([2]; fluorescence quantum yield): 0.98 | τD [3]: 4700 ± 88 ps

Reference: patent US20110079773A1, “Selectively Functionalized Rylene Imides and Diimides” (priority 2009, published 2011)
